What all share (type): cell-based
One assay has as its system S. aureaus FDA-209P. The experiment in a line: MIC against S. aureaus FDA-209P by the plate diluted method. To be noted: Staphylococcus aureus, FDA209P. How it is done: (§1) In order to investigate the in vitro activity of the test compounds against various bacteria, the minimal inhibitory concentration (MIC) values were determined by the plate diluted method (See CHEMOTHERAPY, 22, 1126-1128, 1974.)
(§2) Each strain was adjusted to 1×10^6 cells/ml (O.D. 600 mμ, 0.07 to 0.16).

The test system of a further assay is E. coli No. 29. The experiment in a line: MIC against E. coli No. 29 by the plate diluted method. The settings on record: Escherichia coli, 1×10^6 cells/ml. How it is done:
as §1, §2

For another assay, the system named is K. pneumoniae NCTC-9632. Put plainly: MIC against K. pneumoniae NCTC-9632 by the plate diluted method. To be noted: Klebsiella pneumoniae, NCTC9632; K. pneumoniae NCTC-9632; 1×10^6 cells/ml; read-out: MIC. How it is done: as §1, §2
The test system of a further assay is M. moganii IIDkono. The experiment in a line: MIC against M. moganii IIDkono by the plate diluted method. How it is done: as §1, §2
Another assay concerns S. marcescens IFO 12648. Put plainly: MIC against S. marcescens IFO 12648 by the plate diluted method. To be noted: Serratia marcescens, IFO12648; S. marcescens IFO 12648; 1×10^6 cells/ml; read-out: MIC. How it is done: as §1, §2
For another assay, the system named is A. calcoaceticus Ac-54. Put plainly: MIC against A. calcoaceticus Ac-54 by the plate diluted method. The settings on record: Acinetobacter calcoaceticus, AC54; A. calcoaceticus Ac-54; 1×10^6 cells/ml; read-out: MIC. How it is done: as §1, §2
Another assay has as its system P. aeruginosa ATCC-10145. The experiment in a line: MIC against P. aeruginosa ATCC-10145 by the plate diluted method. The settings on record: Pseudomonas aeruginosa, ATCC10145; P. aeruginosa ATCC-10145; 1×10^6 cells/ml; read-out: MIC. How it is done:
as §1, §2

The next assay deals with P. aeruginosa E-2. Put plainly: MIC against P. aeruginosa E-2 by the plate diluted method. To be noted: Pseudomonas aeruginosa, E2; P. aeruginosa E-2; 1×10^6 cells/ml; read-out: MIC. How it is done: as §1, §2
Setting [1] is: S. aureaus FDA-209P, 1×10^6 cells/ml, read-out: MIC.
[2] abbreviates: M. moganii IIDkono, 1×10^6 cells/ml, read-out: MIC.

In brackets after ≈: the same amount, converted by molar mass. Read-outs that look alike come from different tables or passages of the source.

For `Cc1nnc(SCC2=C(C(=O)O)N3C(=O)[C@@H](NC(=O)/C(=N\OCc4cc(=O)c(O)cn4O)c4csc(N)n4)[C@H]3CS2)s1` [No. 1, (6S,7S)-7-[(Z)-2-(2-Aminothiazol-4-yl)-2-(1,5-dihydroxy-4-pyridone-2-ylmethoxyimino)acetamide]-3-(2-methyl-1,3,4-thiadiazol-5-yl)thiomethyl-isocephem-4-carboxylic acid], the MIC in the assay on S. aureaus FDA-209P (setting [1]) is 25 µg/mL (≈ 38.3 µM); in the assay with E. coli No. 29, 0.024 µg/mL (≈ 0.0368 µM); with K. pneumoniae NCTC-9632 it was 0.012 µg/mL (≈ 0.0184 µM); against M. moganii IIDkono, 0.05 µg/mL (≈ 0.0766 µM); in the assay on S. marcescens IFO 12648, 0.024 µg/mL (≈ 0.0368 µM); with A. calcoaceticus Ac-54 it was 0.1 µg/mL (≈ 0.153 µM). The MIC was 0.1 µg/mL (≈ 0.153 µM) in the assay on P. aeruginosa ATCC-10145 and 0.2 µg/mL (≈ 0.306 µM) in the assay with P. aeruginosa E-2.

For `Nc1nc(/C(=N/OCc2cc(=O)c(O)cn2O)C(=O)N[C@@H]2C(=O)N3C(C(=O)O)=C(CSc4nncs4)SC[C@H]23)cs1` [No. 2, (6S,7S)-7-[(Z)-2-(2-Aminothiazol-4-yl)-2-(1,5-dihydroxy-4-pyridone-2-ylmethoxyimino)acetamide]-3-(1,3,4-thiadiazol-5-yl)thiomethyl-isocephem-4-carboxylic acid], the MIC is 12.5 µg/mL (≈ 19.6 µM) with S. aureaus FDA-209P (setting [1]); 0.024 µg/mL (≈ 0.0376 µM) in the assay on E. coli No. 29; at most 0.006 µg/mL in the assay on K. pneumoniae NCTC-9632; 0.1 µg/mL (≈ 0.157 µM) in the assay with M. moganii IIDkono (setting [2]); 0.05 µg/mL (≈ 0.0783 µM) in the assay with S. marcescens IFO 12648; 0.1 µg/mL (≈ 0.157 µM) in the assay on A. calcoaceticus Ac-54. Besides, the minimal inhibitory concentration (MIC) in the assay on P. aeruginosa ATCC-10145 and in the assay with P. aeruginosa E-2 was 0.05 µg/mL (≈ 0.0783 µM) in each case.

In the case of `CC(C)(O/N=C(\C(=O)N[C@@H]1C(=O)N2C(C(=O)[O-])=C(CSc3cc[n+](CC(=O)c4ccc(O)c(O)c4)cc3)SC[C@H]12)c1csc(N)n1)C(=O)O` [No. 3, (6S,7S)-7-[(Z)-2-(2-aminothiazol-4-yl)-2-(1-carboxy-1-methylethoxy)iminoacetamide]-3-{[1-[2-(3,4-dihydroxyphenyl)-2-oxo]ethyl]-4-pyridinio}thiomethylisocephem-4-carboxylate], the MIC in the assay with S. aureaus FDA-209P (setting [1]) is 0.78 µg/mL (≈ 1.07 µM); in the assay with E. coli No. 29 it was at most 0.006 µg/mL; in the assay with K. pneumoniae NCTC-9632 it was at most 0.006 µg/mL; in the assay on M. moganii IIDkono (setting [2]), 0.024 µg/mL (≈ 0.0329 µM); in the assay with S. marcescens IFO 12648, 0.024 µg/mL (≈ 0.0329 µM); with A. calcoaceticus Ac-54, 0.1 µg/mL (≈ 0.137 µM). For the same molecule, the minimal inhibitory concentration (MIC) in the assay on P. aeruginosa ATCC-10145 and in the assay on P. aeruginosa E-2 was 0.05 µg/mL (≈ 0.0686 µM) throughout.

Take `CC(C)(O/N=C(\C(=O)N[C@@H]1C(=O)N2C(C(=O)[O-])=C(CSc3cc[n+](CC(=O)NNC(=O)c4ccc(O)c(O)c4)cc3)SC[C@H]12)c1csc(N)n1)C(=O)O` [No. 4]: the MIC in the assay with S. aureaus FDA-209P was 3.13 µg/mL (≈ 3.98 µM); against E. coli No. 29, 0.012 µg/mL (≈ 0.0153 µM); in the assay with K. pneumoniae NCTC-9632, at most 0.006 µg/mL; in the assay with M. moganii IIDkono (setting [2]) it was 0.024 µg/mL (≈ 0.0305 µM); in the assay with S. marcescens IFO 12648, 0.024 µg/mL (≈ 0.0305 µM); in the assay with A. calcoaceticus Ac-54, 0.2 µg/mL (≈ 0.254 µM). For the same molecule, the MIC in the assay on P. aeruginosa ATCC-10145 and in the assay on P. aeruginosa E-2 was 0.1 µg/mL (≈ 0.127 µM) in each case.

In the case of `Cc1nnc(SCC2=C(C(=O)O)N3C(=O)[C@@H](NC(=O)/C(=N\OCc4ccc(O)c(O)c4)c4csc(N)n4)[C@H]3CS2)s1` [No. 5, (6S,7S)-7-[(Z)-2-(2-aminothiazol-4-yl)-2-(3,4-dihydroxyphenylmethoxyimino)]acetamide-3-(2-methyl-1,3,4-thiadiazol-5-ylthiomethyl)isocephem-4-carboxylic acid], the MIC in the assay on S. aureaus FDA-209P was 1.56 µg/mL (≈ 2.45 µM); with E. coli No. 29, 0.012 µg/mL (≈ 0.0189 µM); in the assay on K. pneumoniae NCTC-9632, 0.012 µg/mL (≈ 0.0189 µM); with M. moganii IIDkono (setting [2]), 0.05 µg/mL (≈ 0.0786 µM); with S. marcescens IFO 12648 it was 0.05 µg/mL (≈ 0.0786 µM); in the assay on A. calcoaceticus Ac-54, 0.39 µg/mL (≈ 0.613 µM). The MIC with P. aeruginosa ATCC-10145 and in the assay on P. aeruginosa E-2 was 0.39 µg/mL (≈ 0.613 µM) each time.

`Cc1nnc(SCC2=C(C(=O)O)N3C(=O)[C@@H](NC(=O)/C(=N\OC(C(=O)O)c4ccc(O)c(O)c4)c4csc(N)n4)[C@H]3CS2)s1` (stereo partly drawn) [No. 6, (6S,7S)-7-{(Z)-2-(2-aminothiazol-4-yl)-2-[carboxy(3,4-dihydroxyphenol)methoxyimino]}acetamide-3-(2-methyl-1,3,4-thiadiazol-5-ylthiomethyl)isocephem-4-carboxylic acid]: the minimal inhibitory concentration (MIC) is 3.13 µg/mL (≈ 4.6 µM) against S. aureaus FDA-209P; 0.012 µg/mL (≈ 0.0177 µM) in the assay on E. coli No. 29; at most 0.006 µg/mL with K. pneumoniae NCTC-9632; 0.024 µg/mL (≈ 0.0353 µM) with M. moganii IIDkono (setting [2]); 0.012 µg/mL (≈ 0.0177 µM) in the assay on S. marcescens IFO 12648; 0.2 µg/mL (≈ 0.294 µM) with A. calcoaceticus Ac-54. The MIC is 0.2 µg/mL (≈ 0.294 µM) in the assay on P. aeruginosa ATCC-10145 and 0.39 µg/mL (≈ 0.574 µM) with P. aeruginosa E-2.

Regarding `CC(C)(O/N=C(\C(=O)N[C@@H]1C(=O)N2C(C(=O)[O-])=C(CSc3cc[n+](Cc4cc(=O)c(O)c[nH]4)cc3)SC[C@H]12)c1csc(N)n1)C(=O)O` [No. 7, (6S,7S)-7-[(Z)-2-(2-aminothiazol-4-yl)-2-(1-carboxy-1-methylethoxy)imino]acetamide-3-[(5-hydroxy-4-pyridone-2-yl)methyl-4-pyridinio]thiomethylisocephem-4-carboxylate], the minimal inhibitory concentration (MIC) against S. aureaus FDA-209P is 3.13 µg/mL (≈ 4.46 µM); against E. coli No. 29, 0.012 µg/mL (≈ 0.0171 µM); in the assay on K. pneumoniae NCTC-9632, 0.012 µg/mL (≈ 0.0171 µM); with M. moganii IIDkono (setting [2]), 0.024 µg/mL (≈ 0.0342 µM); in the assay with S. marcescens IFO 12648, 0.012 µg/mL (≈ 0.0171 µM); in the assay on A. calcoaceticus Ac-54, 0.2 µg/mL (≈ 0.285 µM). In addition, the MIC in the assay with P. aeruginosa ATCC-10145 and with P. aeruginosa E-2 was 0.1 µg/mL (≈ 0.142 µM) each time.

For `Nc1nc(/C(=N/OCC(=O)O)C(=O)N[C@@H]2C(=O)N3C(C(=O)[O-])=C(CSc4cc[n+](CC(=O)c5ccc(O)c(O)c5)cc4)OC[C@H]23)cs1` [No. 8, (6S,7S)-7-[(Z)-2-(2-aminothiazol-4-yl)-2-(1-carboxymethoxy)iminoacetamide]-3 {[1-[2-(3,4-dihydroxyphenyl)-2-oxo]ethyl]-4-pyridinio}thiomethyl-Δ^3 -O-2-isocephem-4-carboxylate], the MIC against S. aureaus FDA-209P is 1.56 µg/mL (≈ 2.28 µM); against E. coli No. 29, at most 0.006 µg/mL; with K. pneumoniae NCTC-9632, at most 0.006 µg/mL; in the assay on M. moganii IIDkono (setting [2]), 0.024 µg/mL (≈ 0.0351 µM); in the assay on S. marcescens IFO 12648, 0.024 µg/mL (≈ 0.0351 µM); in the assay with A. calcoaceticus Ac-54 it was 0.05 µg/mL (≈ 0.073 µM). For the same molecule, the results for the MIC in the assay on P. aeruginosa ATCC-10145 and with P. aeruginosa E-2 were 0.05 µg/mL (≈ 0.073 µM) and 0.1 µg/mL (≈ 0.146 µM), respectively.

As for `Nc1nc(/C(=N/OCc2cc(=O)c(O)cn2O)C(=O)N[C@@H]2C(=O)N3C(C(=O)O)=C(CSc4nnnn4CC(=O)O)SC[C@H]23)cs1` [No. 9, (6S,7S)-7-[(Z)-2-(2-aminothiazol-4-yl)-2-(1,5-dihydroxy-4-pyridone-2-ylmethoxyimino)acetamide]-3-(1-carboxymethyl-1H-tetrazole-5-ylthiomethyl)isocephem-4-carboxylic acid], the MIC in the assay on S. aureaus FDA-209P (setting [1]) was 100 µg/mL (≈ 147 µM); against E. coli No. 29, 0.012 µg/mL (≈ 0.0176 µM); in the assay with K. pneumoniae NCTC-9632, at most 0.006 µg/mL; in the assay on M. moganii IIDkono (setting [2]), 0.024 µg/mL (≈ 0.0353 µM); in the assay with S. marcescens IFO 12648 it was 0.012 µg/mL (≈ 0.0176 µM); in the assay with A. calcoaceticus Ac-54 it was 0.012 µg/mL (≈ 0.0176 µM). Besides, the MIC in the assay with P. aeruginosa ATCC-10145 and in the assay on P. aeruginosa E-2 was 0.05 µg/mL (≈ 0.0735 µM) in each case.

As for `Nc1nc(/C(=N/OCc2cc(=O)c(O)cn2O)C(=O)N[C@@H]2C(=O)N3C(C(=O)O)=C(CSc4nnc(N)s4)SC[C@H]23)cs1` [No. 10, (6S,7S)-7-[(Z)-2-(2-aminothiazol-4-yl)-2-(1,5-dihydroxy-4-pyridone-2-ylmethoxyimino)acetamide]-3-(2-amino-1,3,4-thiadiazol-5-ylthiomethyl)isocephem-4-carboxylic acid], the minimal inhibitory concentration (MIC) in the assay on S. aureaus FDA-209P (setting [1]) is 50 µg/mL (≈ 76.5 µM); in the assay on E. coli No. 29 it was 0.05 µg/mL (≈ 0.0765 µM); with K. pneumoniae NCTC-9632, 0.05 µg/mL (≈ 0.0765 µM); in the assay on M. moganii IIDkono (setting [2]) it was 0.05 µg/mL (≈ 0.0765 µM); with S. marcescens IFO 12648 it was 0.05 µg/mL (≈ 0.0765 µM); in the assay on A. calcoaceticus Ac-54 it was 0.78 µg/mL (≈ 1.19 µM). Besides, the figures for the MIC with P. aeruginosa ATCC-10145 and in the assay on P. aeruginosa E-2 were 0.1 µg/mL (≈ 0.153 µM) and 0.2 µg/mL (≈ 0.306 µM), respectively.

As a reminder, the MIC is the least concentration at which growth counts as inhibited.
